Measurements: publication PMC4187893, “Biochemical and Antiparasitic Properties of Inhibitors of the Plasmodium falciparum Calcium-Dependent Protein Kinase PfCDPK1” (Antimicrobial Agents and Chemotherapy, 2014)
pEC50, pIC50: −log10 of the molar value.

What was measured:
[1] = system: P. berghei; parameters: method as in PMID 24689770; conditions: mice, 50 mg/kg po, groups of three mice; mean (SD); cited from earlier work
[2] = system: P. falciparum 3D7; test: FACS assay for parasite growth; conditions: read-out: Parasite growth inhibition EC50; FACS; mean (SD), n = 3
[3] = parameters: method as in PMID 24689770; conditions: cited from earlier work
[4] = biological target: PvCDPK1 (Plasmodium vivax, UniProt A5KBU9); test: Rh-ParM ADP sensor IC50 assay, PvCDPK1; conditions: read-out: IC50 PvCDPK1; Rh-ParM, absence of MTIP; mean (SD), n = 3
PvCDPK1, sequence (A5KBU9 entry or part of it): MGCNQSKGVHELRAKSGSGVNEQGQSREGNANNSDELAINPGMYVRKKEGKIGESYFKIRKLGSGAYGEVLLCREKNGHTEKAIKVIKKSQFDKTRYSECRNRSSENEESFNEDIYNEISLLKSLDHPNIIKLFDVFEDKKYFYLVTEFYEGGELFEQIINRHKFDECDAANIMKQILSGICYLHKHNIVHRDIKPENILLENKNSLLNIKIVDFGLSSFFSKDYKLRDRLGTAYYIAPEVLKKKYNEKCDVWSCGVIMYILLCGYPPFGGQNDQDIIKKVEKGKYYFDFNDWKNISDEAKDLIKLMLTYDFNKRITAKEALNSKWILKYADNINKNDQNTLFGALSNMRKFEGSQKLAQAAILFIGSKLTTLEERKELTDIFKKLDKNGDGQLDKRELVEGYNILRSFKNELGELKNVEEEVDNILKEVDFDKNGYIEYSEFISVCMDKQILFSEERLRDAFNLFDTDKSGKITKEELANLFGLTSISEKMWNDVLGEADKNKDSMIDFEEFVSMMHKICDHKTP

[5] = biological target: PfCDPK1 (Plasmodium falciparum, UniProt P62344); test: Thermal shift assay; format: binding; parameters: 50 nM full-length recombinant PfCDPK1 and 8 μM MTIP in assay buffer 1; GST (from vector pGEX6P1) (N, cleaved yes); made in house; host or cells: Escherichia coli BL21 Gold; conditions: 10 μM compound, relative to DMSO controls
PfCDPK1, sequence (P62344 whole entry): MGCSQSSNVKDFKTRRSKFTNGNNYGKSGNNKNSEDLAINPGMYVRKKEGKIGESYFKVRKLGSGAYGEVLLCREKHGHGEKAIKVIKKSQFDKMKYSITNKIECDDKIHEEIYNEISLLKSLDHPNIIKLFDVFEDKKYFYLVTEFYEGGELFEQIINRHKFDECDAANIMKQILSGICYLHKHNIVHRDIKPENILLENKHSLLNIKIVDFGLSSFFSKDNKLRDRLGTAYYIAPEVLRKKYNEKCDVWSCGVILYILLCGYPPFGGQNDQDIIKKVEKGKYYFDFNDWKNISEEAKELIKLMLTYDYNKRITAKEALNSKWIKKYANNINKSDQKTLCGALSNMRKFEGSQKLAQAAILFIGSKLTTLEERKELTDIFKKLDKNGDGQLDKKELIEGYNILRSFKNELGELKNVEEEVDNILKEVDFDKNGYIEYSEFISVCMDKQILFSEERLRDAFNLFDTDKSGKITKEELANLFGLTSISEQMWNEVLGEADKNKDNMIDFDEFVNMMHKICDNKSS
Description: Purified recombinant PfCDPK1 was diluted to 1 μM in 10 mM HEPES buffer (pH 7.5) containing 150 mM NaCl, 1 mM Ca^2+, and 1/1,000 SYPRO orange dye (Invitrogen). Test compounds were prediluted to 400 μM in 40% (vol/vol) DMSO in water, and 1 μl of diluted compound was added to 39 μl of enzyme/dye mix in white 96-well quantitative PCR plates (Thermo Scientific) to give a final compound concentration of 10 μM. Reference thermal melting temperatures (Tms) were obtained in parallel by the addition of 1 μl of 40% (vol/vol) DMSO to 39 μl of diluted PfCDPK1. The plates were sealed with transparent adhesive covers (Bio-Rad) and subjected to a temperature gradient from […] at a rate of 1 K/min using a quantitative PCR machine (MX3005P; Stratagene). Fluorescence data were acquired at 1-min intervals using the 6-carboxyfluorescein (FAM)/5-carboxy-X-rhodamine (ROX) filter set (λex = 492 nm; λem = 610 nm), and the raw data were exported to Excel (Microsoft) for analysis. Data were processed to identify the fluorescence maxima and minima, and the midpoints of melting curves were determined by fitting to the Boltzmann equation using XL-fit software (IDBS). Results were expressed as ΔTm values relative to DMSO controls where ΔTm = Tm in the presence of inhibitor − Tm of the DMSO controls.

[6] = biological target: PbCDPK1 (Plasmodium berghei, UniProt A0A509AHB6); test: Rh-ParM ADP sensor IC50 assay, PbCDPK1; conditions: read-out: IC50 PbCDPK1; Rh-ParM, absence of MTIP; mean (SD), n = 3
PbCDPK1, sequence (A0A509AHB6 whole entry): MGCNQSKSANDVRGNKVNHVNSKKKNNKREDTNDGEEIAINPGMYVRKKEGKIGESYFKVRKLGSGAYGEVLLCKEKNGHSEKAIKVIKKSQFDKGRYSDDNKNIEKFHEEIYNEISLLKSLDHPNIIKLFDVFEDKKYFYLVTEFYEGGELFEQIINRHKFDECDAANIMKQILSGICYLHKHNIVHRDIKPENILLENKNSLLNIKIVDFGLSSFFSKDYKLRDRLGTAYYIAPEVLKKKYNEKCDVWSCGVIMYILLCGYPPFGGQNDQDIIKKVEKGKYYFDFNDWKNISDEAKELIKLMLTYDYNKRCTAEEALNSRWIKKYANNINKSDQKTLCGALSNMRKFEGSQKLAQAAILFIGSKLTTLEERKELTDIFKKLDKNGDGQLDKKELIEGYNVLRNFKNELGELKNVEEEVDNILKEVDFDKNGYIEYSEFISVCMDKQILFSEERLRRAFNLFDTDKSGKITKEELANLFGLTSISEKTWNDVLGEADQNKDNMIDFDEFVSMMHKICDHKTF

[7] = parameters: method as in PMID 24689770; conditions: cited from earlier work; remark: listed apart in the source

SMILES | % reduction in parasitemia in vivo (po) [1] | pEC50 [2] | mlogD [3] | pIC50 [4] | ΔTm PfCDPK1 [5] [K] | pIC50 [6] | PAMPA Papp [7] [×10⁻⁶ cm/s]
CC(C)CCNc1ccc(-c2cnc3ccc(NC4CCN(C)CC4)nn23)cn1 [Compound 1] | 46 (4) % | 6.36 | 3.4 | > 8.00 |  |  | 
Cc1ccc(F)c(Nc2ccc(-c3cnc4ccc(NC5CCC(N)CC5)nn34)cc2)n1 (stereo not drawn) [Compound 7] |  |  | 2.2 | > 8.00 | 23 | > 8.00 | 1.8
